In paper PMC8258697 (The Journal of Biological Chemistry, 2021):

Tests used:
[1] = target: T1, PPARγ LBD in complex with RXRα LBD (Homo sapiens, UniProt P37231); test: Heterodimer coactivator recruitment HTRF assay: CBP-1 recruitment by PPARγ LBD in complex with sGFP-RXRα LBD total mutant; assay type: biochemical
T1 construct: His10-tag with TEV site (N, cleaved yes); made in house; host or cells: E. coli T7 express (co-expressed with GroEL/ES)
T1 sequence (P37231 234-505): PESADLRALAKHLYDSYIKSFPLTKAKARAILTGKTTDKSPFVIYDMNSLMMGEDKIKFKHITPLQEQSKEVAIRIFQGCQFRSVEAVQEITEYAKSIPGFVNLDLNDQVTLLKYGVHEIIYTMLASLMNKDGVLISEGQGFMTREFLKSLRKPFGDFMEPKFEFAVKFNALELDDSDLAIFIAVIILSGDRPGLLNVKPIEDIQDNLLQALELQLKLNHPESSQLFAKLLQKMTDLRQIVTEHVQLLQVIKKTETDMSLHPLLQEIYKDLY
T1 sequence (P19793 226-462 V280T/K284E/V298T/F450Y/E453R partner limits assumed): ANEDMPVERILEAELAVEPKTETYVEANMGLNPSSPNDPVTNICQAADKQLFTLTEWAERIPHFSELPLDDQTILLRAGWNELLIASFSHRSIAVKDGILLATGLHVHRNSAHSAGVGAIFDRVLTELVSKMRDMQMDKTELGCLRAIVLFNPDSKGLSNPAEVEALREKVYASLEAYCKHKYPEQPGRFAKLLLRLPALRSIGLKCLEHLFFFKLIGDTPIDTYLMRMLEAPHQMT

[2] = target: T2, PPARγ LBD (Homo sapiens, UniProt P37231); test: Monomer cofactor recruitment HTRF assay: CBP-1 recruitment by isolated sGFP-PPARγ LBD; assay type: biochemical; conditions: versus 1 μM Rosi
T2 construct: His10-tag with TEV site (N, cleaved yes); made in house; host or cells: E. coli T7 express (co-expressed with GroEL/ES)
T2 sequence (P37231 234-505): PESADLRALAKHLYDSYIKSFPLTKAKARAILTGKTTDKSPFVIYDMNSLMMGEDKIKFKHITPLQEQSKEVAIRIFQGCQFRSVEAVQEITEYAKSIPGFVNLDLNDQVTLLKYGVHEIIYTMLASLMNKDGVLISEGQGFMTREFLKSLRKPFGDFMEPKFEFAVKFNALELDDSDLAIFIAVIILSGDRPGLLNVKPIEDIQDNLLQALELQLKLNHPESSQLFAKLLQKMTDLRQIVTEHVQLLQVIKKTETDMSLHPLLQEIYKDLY

[3] = target: T3, PPARγ:RXRα heterodimer (Homo sapiens, UniProt P19793+P37231); test: PPARγ:RXRα heterodimer formation HTRF assay, sGFP-RXRα LBD titrated against biotinylated PPARγ LBD coupled to Tb-SA; assay type: binding
T3 construct: His10-tag with TEV site (N, cleaved yes); made in house; host or cells: E. coli T7 express (co-expressed with GroEL/ES)
T3 sequence (P37231 234-505): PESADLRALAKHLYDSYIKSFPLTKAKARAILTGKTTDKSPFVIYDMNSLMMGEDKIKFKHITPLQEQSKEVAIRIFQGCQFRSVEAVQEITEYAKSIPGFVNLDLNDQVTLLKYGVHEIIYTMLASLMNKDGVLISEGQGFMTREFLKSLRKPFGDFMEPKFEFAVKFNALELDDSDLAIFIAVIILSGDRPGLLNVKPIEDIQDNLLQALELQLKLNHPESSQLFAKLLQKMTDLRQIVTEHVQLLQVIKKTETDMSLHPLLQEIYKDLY
T3 sequence (P19793 226-462): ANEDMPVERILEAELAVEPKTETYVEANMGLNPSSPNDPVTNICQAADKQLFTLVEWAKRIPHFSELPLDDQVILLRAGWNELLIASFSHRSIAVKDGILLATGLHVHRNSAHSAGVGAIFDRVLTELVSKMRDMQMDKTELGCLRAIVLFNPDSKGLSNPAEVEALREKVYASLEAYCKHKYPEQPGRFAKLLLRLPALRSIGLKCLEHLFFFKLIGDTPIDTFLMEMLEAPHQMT

[4] = system: PPARγ; conditions: cited from earlier work
[5] = target: T4, RXRα homodimer (Homo sapiens, UniProt P19793); test: RXRα homodimer formation HTRF assay, sGFP-RXRα LBD titrated against biotinylated RXRα LBD (wildtype); assay type: binding; conditions: 10 μM ligand compared with no ligand
T4 construct: His10-tag with TEV site (N, cleaved yes); made in house; host or cells: E. coli T7 express (co-expressed with GroEL/ES)
T4 sequence (P19793 226-462) 1: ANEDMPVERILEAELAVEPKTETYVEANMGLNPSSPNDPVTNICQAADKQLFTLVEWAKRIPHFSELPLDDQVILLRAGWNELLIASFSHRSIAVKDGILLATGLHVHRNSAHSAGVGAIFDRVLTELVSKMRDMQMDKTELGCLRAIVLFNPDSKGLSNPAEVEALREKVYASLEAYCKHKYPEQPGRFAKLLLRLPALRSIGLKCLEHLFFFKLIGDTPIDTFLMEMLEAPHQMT
T4 sequence (P19793 226-462) 2: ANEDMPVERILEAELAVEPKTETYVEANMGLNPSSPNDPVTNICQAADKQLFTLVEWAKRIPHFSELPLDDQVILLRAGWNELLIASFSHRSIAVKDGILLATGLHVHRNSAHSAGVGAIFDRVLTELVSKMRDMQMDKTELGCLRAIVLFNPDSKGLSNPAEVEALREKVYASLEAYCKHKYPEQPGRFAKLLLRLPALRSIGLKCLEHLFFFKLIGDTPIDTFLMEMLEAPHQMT

[6] = target: T1, PPARγ LBD in complex with RXRα LBD; conditions: cited from earlier work
[7] = system: RXRα LBD wildtype; conditions: cited from earlier work

With `O=C(Nc1ccccc1)c1cc([N+](=O)[O-])ccc1Cl` [GW9662] the “Dimer recruitment, antagonist mode, Max inhibition (%)” value ([1]; versus 1 μM Rosi) was 52%, the “Monomer recruitment, antagonist mode, Max inhibition (%)” value [2] was 62% and the IC50 ([2]; read-out: Monomer recruitment, antagonist mode, Potency (IC50)) was 1.2 ± 0.07 µM. For the same molecule, the “effect on PPARγ:RXRα heterodimer formation” value ([3]; 1 μM ligand compared with apo) was “did not affect heterodimer formation”.
In the case of `O=S(=O)(Nc1cc(Cl)c(Oc2cnc3ccccc3c2)c(Cl)c1)c1ccc(Cl)cc1Cl` [INT131], the “degree of activation of PPARγ compared with rosiglitazone” value [4] is listed as 30%.
For `O=C(O)c1c(Sc2ccccc2)c2cc(Cl)ccc2n1Cc1ccccc1` [SR145], the “degree of activation of PPARγ compared with rosiglitazone” value [4] is given as ~ 35%.
With `O=C(O)Cc1cc(I)c(Oc2cc(I)c(O)c(I)c2)c(I)c1` [TETRAC, 3,3',5,5'-tetraiodothyroacetic acid] the “effect on RXRα homodimer formation” value [5] was “slightly but significantly weakened”, the “effect on PPARγ:RXRα heterodimer formation” value ([3]; 10 μM ligand compared with no ligand) was “strongly reduced the apparent Kd” and the “reduction in the apparent Kd of dimer formation” value ([3]; 10 μM ligand in comparison with dimethyl sulfoxide control) was 4 fold. For the same molecule, the “enhancement of CBP-1 recruitment in comparison with 1 μM rosiglitazone” value [6] was “approximately 50%”, the “activation of RXRα in comparison with 1 μM SR11237” value [7] was “below 10%” and the EC50 ([7]; read-out: EC50 of activation of RXRα) was about 10 µM.
For GW1929, the “change of EC50 in the heterodimer setting in comparison with monomeric PPARγ LBD” value [1] was “about 2 fold”, the “Dimer recruitment, agonist mode, Efficacy (%)” value ([1]; normalized to rosiglitazone in the heterodimer) was 118% and the “reduction of the apparent Kd of heterodimer formation” value ([3]; 1 μM ligand compared with apo) was 3 fold.
